The record followed here is article PMC6853638, “TMC1 is an essential component of a leak channel that modulates tonotopy and excitability of auditory hair cells in mice” (eLife, 2019).

Changes are numbered by the printed parent chain. Where “and” joins values, the source holds several entries; their conditions need not be identical. Identical values can stand only once.

What all share (assay): Background current before and after MTSET treatment in Tmc1-knockout OHCs expressing cysteine-substituted TMC1
Test [1] deals with cysteine-substituted TMC1 constructs. It counts as cell-based, mouse. Particulars: OHCs expressing any of the six cysteine-substituted TMC1 constructs. How it is done:
(§1) Mouse Tmc1 and Tmc2 cDNAs were cloned into CMV-Script and pCDNA3.1- vectors, respectively. To obtain the Tmc1-deafness vector and amino-acid-substituted Tmc1 constructs, specific primers were designed and used for PCR (Supplementary File 1). […] In brief, the organ of Corti was isolated from P3 mice and cut into three pieces in Dulbecco’s modified Eagle’s medium/F12 with 1.5 μg/ml ampicillin. For electroporation, a glass pipette (2 μm tip diameter) was used to deliver cDNA plasmids (0.2 μg/μl in 1 × Hanks' balanced salt solution) to hair cells in the sensory epithelium. EGFP was used as an indicator for the selection of transfected hair cells. A series of three pulses at 60 V lasting 15 ms at 1 s intervals was applied to cochlear tissues by an electroporator (ECM Gemini X2, BTX, CA). The cochlear tissues were cultured for 1 day in vitro and then used for electrophysiological recording.
(§2) All experiments were performed at room temperature (20–25°C). Briefly, the basilar membrane with hair cells was acutely dissected from neonatal mice. […] The acutely isolated or cultured basilar membrane was used for electrophysiological recording within 1 h. […] Hair cells were recorded with a patch-clamp amplifier (EPC 10 USB and Patchmaster software, HEKA Elektronik, Lambrecht/Pfalz, Germany).
(§3) The sampling rate was 1 kHz for leak current recording, 50 kHz for the IV protocol and current-clamp recording, and 100 kHz for unitary channel recording. The voltage-clamp used a –70 mV holding potential, and the current-clamp was held at 0 pA. Only recordings with a current baseline <20 pA in NMDG solution were used for statistical analysis.

Test [2] has as its target T1, cysteine-substituted TMC1 constructs (Mus musculus, UniProt Q8R4P5, N447C).
T1 construct: control full-length TMC1 (TMC1_WT); expressed in transfected cells; host or cells: Tmc1-knockout mouse OHCs, injectoporation
T1 sequence (Q8R4P5 1-757 N447C): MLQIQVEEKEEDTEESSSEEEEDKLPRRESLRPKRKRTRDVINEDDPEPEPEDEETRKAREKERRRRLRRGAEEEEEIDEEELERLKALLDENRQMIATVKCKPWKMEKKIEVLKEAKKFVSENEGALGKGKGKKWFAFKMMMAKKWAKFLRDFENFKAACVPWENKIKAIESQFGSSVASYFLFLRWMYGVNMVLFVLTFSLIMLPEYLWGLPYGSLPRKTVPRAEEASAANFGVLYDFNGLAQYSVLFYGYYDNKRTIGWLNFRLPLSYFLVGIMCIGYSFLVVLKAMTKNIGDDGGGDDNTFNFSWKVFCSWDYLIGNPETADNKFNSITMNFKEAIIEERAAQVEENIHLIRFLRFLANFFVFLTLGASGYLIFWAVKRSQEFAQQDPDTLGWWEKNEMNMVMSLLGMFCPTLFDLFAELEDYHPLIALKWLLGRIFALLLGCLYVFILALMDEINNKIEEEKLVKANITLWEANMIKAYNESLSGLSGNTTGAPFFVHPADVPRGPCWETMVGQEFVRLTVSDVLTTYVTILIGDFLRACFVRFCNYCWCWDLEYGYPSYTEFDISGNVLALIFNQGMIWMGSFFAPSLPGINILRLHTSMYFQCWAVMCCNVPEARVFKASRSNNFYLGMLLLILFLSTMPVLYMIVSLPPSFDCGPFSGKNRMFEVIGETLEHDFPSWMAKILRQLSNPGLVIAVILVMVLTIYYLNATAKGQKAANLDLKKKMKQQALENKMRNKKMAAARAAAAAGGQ
It counts as cell-based. The settings on record: Tmc1-knockout OHCs expressing TMC1-N447C, individual cells. How it is done: as §1, §2, §3

Test [3] deals with T2, cysteine-substituted TMC1 constructs (Mus musculus, UniProt Q8R4P5, M412C).
T2 construct: control full-length TMC1 (TMC1_WT); expressed in transfected cells; host or cells: Tmc1-knockout mouse OHCs, injectoporation
T2 sequence (Q8R4P5 1-757 M412C): T1 sequence (Q8R4P5 1-757 N447C) with M412C, C447N
It counts as cell-based. Particulars: Tmc1-knockout OHCs expressing TMC1-M412C, individual cells. How it is done: as §1, §2, §3

Regarding `C[N+](C)(C)CCSS(C)(=O)=O.[Br-]` [MTSET, 2-(trimethylammonium)ethyl methanethiosulfonate, bromide], in test [1], the “effect on the current baseline” value is “did not, however, change the current baseline”. Also, the “amplitude of the background current after MTSET treatment” value is -12.9811 and -13.0886 and -13.798 and -25.7685 and -27.4817 and -21.0828 in test [2]; -35.9532 and -37.439 and -48.1972 and -25.6217 and -14.3767 and -67.9843 in test [3].
